# According to EP0007672A1, “Isocyanoalkenes, process and useful intermediates for their preparation, pharmaceutical and fungicidal preparations containing those isocyanoalkenes and the use of the fungicidal preparations in agriculture” (GIST-BROCADES N.V., priority 1978, dated 1980):
# Like-named read-outs stand apart in the source and are kept apart here.
# Tests used:
# Assay in all cases: MIC (Minimum Inhibitory Concentration)
# Type in all cases: cell-based
# Candida albicans = system: Candida albicans
# Description: (§1) In addition they may be used for combatting plant diseases, in particular as fungicides. A list of MIC (Minimum Inhibitory Concentration) values for a number of microorganisms is listed herebelow. The figures in the column headings refer to the compounds prepared according to the experimental examples in comparison with the spectrum of 1-[2-(2,4-dichlorophenyl)-2-{(2,4-dichlorophenyl)-methoxy} -ethyl7-1H-imidazole (better known under the name of miconazole, c.f. Merck Index 9th Ed. page 6047) or natamycin (pimaricin, c.f. Merck Index 9th Ed. page 7233).
# Pasteurella multocida = details: read-out: MIC values
# Description: as §1
# [1] = system: Streptococcus haemolyticus; details: read-out: MIC values
# Description: as §1
# Trichophyton equinum = system: Trichophyton equinum
# Description: as §1
# [2] = system: Trichophyton mentagrophytus
# Description: as §1
# Trichophyton quickeaneum = details: read-out: MIC values
# Description: as §1
# Trichophyton rubrum = system: Trichophyton rubrum
# Description: as §1
# [3] = system: Trichophyton schoenleinii; details: read-out: MIC values
# Description: as §1
# Trichophyton tonsurans = details: read-out: MIC values
# Description: as §1
# Trichophyton verrucosum = system: Trichophyton verrucosum
# Description: as §1
# Trichophyton violoceum = details: read-out: MIC values
# Description: as §1
# [4] = Candida albicans A 7, read-out: MIC values
# [5] = Candida albicans A 3140, read-out: MIC values
# [6] = Candida albicans A 3141, read-out: MIC values
# [7] = Candida albicans A 3142, read-out: MIC values
# [8] = Candida albicans A 3143, read-out: MIC values
# [9] = Candida albicans A 3144, read-out: MIC values
# [10] = Candida albicans A 3145, read-out: MIC values
# [11] = Candida albicans A 3165, read-out: MIC values
# [12] = Candida albicans A 3166, read-out: MIC values
# [13] = Candida albicans A 3167, read-out: MIC values
# [14] = Candida albicans A 3168, read-out: MIC values
# [15] = Candida albicans A 3169, read-out: MIC values
# [16] = Candida albicans A 3171, read-out: MIC values
# [17] = Candida albicans A 3184, read-out: MIC values
# [18] = Candida albicans A 3190, read-out: MIC values
# [19] = Candida albicans A 3191, read-out: MIC values
# [20] = Candida albicans A 3192, read-out: MIC values
# [21] = Candida albicans A 3194, read-out: MIC values
# [22] = Candida albicans A 3196, read-out: MIC values
# [23] = Streptococcus haemolyticus A 1088
# [24] = Trichophyton equinum 182-76, read-out: MIC values
# [25] = Trichophyton equinum 441-51, read-out: MIC values
# [26] = Trichophyton mentagrophytus 367-68, read-out: MIC values
# [27] = Trichophyton mentagrophytus 421-67, read-out: MIC values
# [28] = Trichophyton mentagrophytus A 3252, read-out: MIC values
# [29] = Trichophyton mentagrophytus R 177, read-out: MIC values
# [30] = Trichophyton mentagrophytus R 178, read-out: MIC values
# [31] = Trichophyton quickeaneum A 2040
# [32] = Trichophyton rubrum 218-65, read-out: MIC values
# [33] = Trichophyton rubrum 494-62, read-out: MIC values
# [34] = Trichophyton rubrum A 810, read-out: MIC values
# [35] = Trichophyton schoenleinii 435-63
# [36] = Trichophyton verrucosum 134-66, read-out: MIC values
# [37] = Trichophyton verrucosum A 2922, read-out: MIC values
smiles,measurement,setting,value
"[C-]#[N+]C(C1=CCOCC1)S(=O)(=O)c1ccc(C)cc1 (stereo not drawn) [Example 14b, α-(2,3-dihydro-6H-pyran-4-yl)-a-(4-toluenesulphonyl)-methylisocyanide]",MIC,Candida albicans; [4],6 µg/mL
same,MIC,Candida albicans; [5],6 µg/mL
same,MIC,Candida albicans; [6],12.5 µg/mL
same,MIC,Candida albicans; [7],6 µg/mL
same,MIC,Candida albicans; [8],6 µg/mL
same,MIC,Candida albicans; [9],25 µg/mL
same,MIC,Candida albicans; [10],12.5 µg/mL
same,MIC,Candida albicans; [11],6 µg/mL
same,MIC,Candida albicans; [12],6 µg/mL
same,MIC,Candida albicans; [13],6 µg/mL
same,MIC,Candida albicans; [14],6 µg/mL
same,MIC,Candida albicans; [15],6 µg/mL
same,MIC,Candida albicans; [16],6 µg/mL
same,MIC,Candida albicans; [17],6 µg/mL
same,MIC,Candida albicans; [18],12.5 µg/mL
same,MIC,Candida albicans; [19],25 µg/mL
same,MIC,Candida albicans; [20],6 µg/mL
same,MIC,Candida albicans; [21],12.5 µg/mL
same,MIC,Candida albicans; [22],25 µg/mL
same,MIC,Pasteurella multocida; Pasteurella multocida A 723,6 µg/mL
same,MIC,[1]; [23],100 µg/mL
same,MIC,Trichophyton equinum; [24],25 µg/mL
same,MIC,Trichophyton equinum; [25],3 µg/mL
same,MIC,[2]; [26],25 µg/mL
same,MIC,[2]; [27],25 µg/mL
same,MIC,[2]; [28],25 µg/mL
same,MIC,[2]; [29],25 µg/mL
same,MIC,[2]; [30],50 µg/mL
same,MIC,Trichophyton quickeaneum; [31],25 µg/mL
same,MIC,Trichophyton rubrum; [32],3 µg/mL
same,MIC,Trichophyton rubrum; [33],25 µg/mL
same,MIC,Trichophyton rubrum; [34],12.5 µg/mL
same,MIC,[3]; [35],6 µg/mL
same,MIC,Trichophyton tonsurans; Trichophyton tonsurans 561-50,0.4 µg/mL
same,MIC,Trichophyton verrucosum; [36],3 µg/mL
same,MIC,Trichophyton verrucosum; [37],1.5 µg/mL
same,MIC,Trichophyton violoceum; Trichophyton violoceum 442-62,12.5 µg/mL
"[C-]#[N+]C(=C1CCSCC1)S(=O)(=O)c1ccc(C)cc1 [Example 16a, a-(thian-4-ylidene)-a-(4-toluenesulphonyl)-methylisocyanide]",MIC,"Candida albicans; read-out: MIC values, Candida albicans A 7",6 µg/mL
same,MIC,"Candida albicans; read-out: MIC values, Candida albicans A 3140",6 µg/mL
same,MIC,"Candida albicans; read-out: MIC values, Candida albicans A 3141",6 µg/mL
same,MIC,"Candida albicans; read-out: MIC values, Candida albicans A 3142",6 µg/mL
same,MIC,"Candida albicans; read-out: MIC values, Candida albicans A 3143",12.5 µg/mL
same,MIC,"Candida albicans; read-out: MIC values, Candida albicans A 3144",12.5 µg/mL
same,MIC,"Candida albicans; read-out: MIC values, Candida albicans A 3145",12.5 µg/mL
same,MIC,"Candida albicans; read-out: MIC values, Candida albicans A 3165",6 µg/mL
same,MIC,"Candida albicans; read-out: MIC values, Candida albicans A 3166",3 µg/mL
same,MIC,"Candida albicans; read-out: MIC values, Candida albicans A 3167",3 µg/mL
same,MIC,"Candida albicans; read-out: MIC values, Candida albicans A 3168",3 µg/mL
same,MIC,"Candida albicans; read-out: MIC values, Candida albicans A 3169",12.5 µg/mL
same,MIC,"Candida albicans; read-out: MIC values, Candida albicans A 3171",6 µg/mL
same,MIC,"Candida albicans; read-out: MIC values, Candida albicans A 3184",12.5 µg/mL
same,MIC,"Candida albicans; read-out: MIC values, Candida albicans A 3190",25 µg/mL
same,MIC,"Candida albicans; read-out: MIC values, Candida albicans A 3191",25 µg/mL
same,MIC,"Candida albicans; read-out: MIC values, Candida albicans A 3192",25 µg/mL
same,MIC,"Candida albicans; read-out: MIC values, Candida albicans A 3194",25 µg/mL
same,MIC,"Candida albicans; read-out: MIC values, Candida albicans A 3196",25 µg/mL
same,MIC,Pasteurella multocida; Pasteurella multocida,6 µg/mL
same,MIC,[1]; Streptococcus,25 µg/mL
same,MIC,"Trichophyton equinum; read-out: MIC values, Trichophyton equinum 182-76",25 µg/mL
same,MIC,"Trichophyton equinum; read-out: MIC values, Trichophyton equinum 441-51",3 µg/mL
same,MIC,"[2]; read-out: MIC values, Trichophyton mentagrophytus 367-68",25 µg/mL
same,MIC,"[2]; read-out: MIC values, Trichophyton mentagrophytus 421-67",50 µg/mL
same,MIC,"[2]; read-out: MIC values, Trichophyton mentagrophytus A 3252",25 µg/mL
same,MIC,"[2]; read-out: MIC values, Trichophyton mentagrophytus R 177",12.5 µg/mL
same,MIC,"[2]; read-out: MIC values, Trichophyton mentagrophytus R 178",100 µg/mL
same,MIC,Trichophyton quickeaneum; Trichophyton,12.5 µg/mL
same,MIC,"Trichophyton rubrum; read-out: MIC values, Trichophyton rubrum 218-65",6 µg/mL
same,MIC,"Trichophyton rubrum; read-out: MIC values, Trichophyton rubrum 494-62",25 µg/mL
same,MIC,"Trichophyton rubrum; read-out: MIC values, Trichophyton rubrum A 810",3 µg/mL
same,MIC,[3]; Trichophyton schoenleinii,6 µg/mL
same,MIC,Trichophyton tonsurans; Trichophyton tonsurans,0.4 µg/mL
same,MIC,"Trichophyton verrucosum; read-out: MIC values, Trichophyton verrucosum 134-66",3 µg/mL
same,MIC,"Trichophyton verrucosum; read-out: MIC values, Trichophyton verrucosum A 2922",1.5 µg/mL
same,MIC,Trichophyton violoceum; Trichophyton,6 µg/mL
"[C-]#[N+]C(=C(C)c1cccs1)S(=O)(=O)c1ccc(C)cc1 [Example 17, 1-isocyano-1-(4-toluenesulphonyl)-2-(2-thienyl)-1-propene]",MIC,Candida albicans; [4],0.75 µg/mL
same,MIC,Candida albicans; [5],1.5 µg/mL
same,MIC,Candida albicans; [6],1.5 µg/mL
same,MIC,Candida albicans; [7],1.5 µg/mL
same,MIC,Candida albicans; [8],1.5 µg/mL
same,MIC,Candida albicans; [9],1.5 µg/mL
same,MIC,Candida albicans; [10],3 µg/mL
same,MIC,Candida albicans; [11],1.5 µg/mL
same,MIC,Candida albicans; [12],1.5 µg/mL
same,MIC,Candida albicans; [13],1.5 µg/mL
same,MIC,Candida albicans; [14],3 µg/mL
same,MIC,Candida albicans; [15],1.5 µg/mL
same,MIC,Candida albicans; [16],1.5 µg/mL
same,MIC,Candida albicans; [17],1.5 µg/mL
same,MIC,Candida albicans; [18],1.5 µg/mL
same,MIC,Candida albicans; [19],3 µg/mL
same,MIC,Candida albicans; [20],1.5 µg/mL
same,MIC,Candida albicans; [21],3 µg/mL
same,MIC,Candida albicans; [22],1.5 µg/mL
same,MIC,Pasteurella multocida; Pasteurella multocida A 723,3 µg/mL
same,MIC,[1]; [23],6 µg/mL
same,MIC,Trichophyton equinum; [24],> 100 µg/mL
same,MIC,Trichophyton equinum; [25],0.75 µg/mL
same,MIC,[2]; [26],100 µg/mL
same,MIC,[2]; [27],> 100 µg/mL
same,MIC,[2]; [28],6 µg/mL
same,MIC,[2]; [29],> 100 µg/mL
same,MIC,[2]; [30],> 100 µg/mL
same,MIC,Trichophyton quickeaneum; [31],6 µg/mL
same,MIC,Trichophyton rubrum; [32],6 µg/mL
same,MIC,Trichophyton rubrum; [33],6 µg/mL
same,MIC,Trichophyton rubrum; [34],12.5 µg/mL
same,MIC,[3]; [35],3 µg/mL
same,MIC,Trichophyton tonsurans; Trichophyton tonsurans 561-50,< 0.4 µg/mL
same,MIC,Trichophyton verrucosum; [36],0.75 µg/mL
same,MIC,Trichophyton verrucosum; [37],0.4 µg/mL
same,MIC,Trichophyton violoceum; Trichophyton violoceum 442-62,3 µg/mL
"[C-]#[N+]C(=C(CCCC)c1ccccc1)S(=O)(=O)c1ccc(C)cc1 [Example 19, 2-phenyl-1-isocyano-1-(4-toluenesulphonyl)-1-hexene]",MIC,Candida albicans; [4],6 µg/mL
same,MIC,Candida albicans; [5],6 µg/mL
same,MIC,Candida albicans; [6],6 µg/mL
same,MIC,Candida albicans; [7],6 µg/mL
same,MIC,Candida albicans; [8],6 µg/mL
same,MIC,Candida albicans; [9],> 100 µg/mL
same,MIC,Candida albicans; [10],6 µg/mL
same,MIC,Candida albicans; [11],6 µg/mL
same,MIC,Candida albicans; [12],6 µg/mL
same,MIC,Candida albicans; [13],50 µg/mL
same,MIC,Candida albicans; [14],6 µg/mL
same,MIC,Candida albicans; [15],3 µg/mL
same,MIC,Candida albicans; [16],3 µg/mL
same,MIC,Candida albicans; [17],50 µg/mL
same,MIC,Candida albicans; [18],6 µg/mL
same,MIC,Candida albicans; [19],> 100 µg/mL
same,MIC,Candida albicans; [20],6 µg/mL
same,MIC,Candida albicans; [21],6 µg/mL
same,MIC,Candida albicans; [22],100 µg/mL
same,MIC,Pasteurella multocida; Pasteurella multocida A 723,> 100 µg/mL
same,MIC,[1]; [23],> 100 µg/mL
same,MIC,Trichophyton equinum; [24],> 100 µg/mL
same,MIC,Trichophyton equinum; [25],3 µg/mL
same,MIC,[2]; [26],> 100 µg/mL
same,MIC,[2]; [27],> 100 µg/mL
same,MIC,[2]; [28],> 100 µg/mL
same,MIC,[2]; [29],> 100 µg/mL
same,MIC,[2]; [30],> 100 µg/mL
same,MIC,Trichophyton quickeaneum; [31],> 100 µg/mL
same,MIC,Trichophyton rubrum; [32],> 100 µg/mL
same,MIC,Trichophyton rubrum; [33],> 100 µg/mL
same,MIC,Trichophyton rubrum; [34],> 100 µg/mL
same,MIC,[3]; [35],> 100 µg/mL
same,MIC,Trichophyton tonsurans; Trichophyton tonsurans 561-50,0.4 µg/mL
same,MIC,Trichophyton verrucosum; [36],3 µg/mL
same,MIC,Trichophyton verrucosum; [37],3 µg/mL
same,MIC,Trichophyton violoceum; Trichophyton violoceum 442-62,> 100 µg/mL
